From patent US20160015743A1, “METHODS FOR TREATING CANCER” (priority 2013, published 2016)
Where a SMILES comes first, the peptide text is derived from it. The star is where a group is joined. Cbz = O=C(OCc1ccccc1)*

What was measured:
[1] = molecular target: T1, cyclin D1 (Homo sapiens, UniProt P24385); test: In vivo SUMOylation and ubiquitylation assay (co-immunoprecipitation, western blotting); type: cell-based
T1 construct: endogenous in cells; host or cells: HCT-116
Experimental: (§1) (a, b&d) In vivo SUMOylation and ubiquitination assay. As for (a), HCT-116 cells were treated with As2O3 for 16 h (2.5 μM). Cell lysates were harvested at different time points (0, 1, 4 and 16 h). As for (b), WT or mutant cyclin D1 (K149R, T286A, DM) construct was stably transfected into HCT-116 cells. Then the cells were treated with As2O3 for 1 h. As for (d), HCT-116 cells were treated with As2O3 for 16 h (2.5 μM) in the absence or presence of MG132 (10 μM, 6 h of incubation). The SUMOylated and ubiquitylated cyclin D1 was detected as described in FIG. 1f. Cyclin D1 protein levels were detected using anti-cyclin D1 antibody (a&d) or anti-HA-antibody (b) by western blotting. (c) WT or mutant cyclin D1 (K149R, T286A, DM) construct was stably transfected into HCT-116 cells. Then the cells were treated with As2O3 for 16 h. Cyclin D1 protein levels were detected using anti-HA-antibody by western blotting. (e) TUNEL staining. WT or mutant cyclin D1 (K149R, T286A) construct was stably transfected into HCT-116 cells. Then the cells were treated with As2O3 (2.5 μM) for 16 h. The apoptotic cells were detected using Promega's DEADEND Colorimetric TUNEL System. Yellow arrows are pointing at apoptotic cells. (f) Flow cytometry. WT or mutant cyclin D1 (K149R) construct was stably transfected into HCT-116 cells. Then the cells were treated with As2O3 for 16 h (2.5 μM). Cell cycle progression was detected by flow cytometry. (As, arsenic trioxide)
(§2) SUMOylated cyclin D1 or ubiquitylated cyclin D1 was detected by co-immunoprecipitation using anti-SUMO-2/3 antibody or anti-ubiquitin antibody conjugated beads (Enzo Life Science), followed by immunoblotting with anti-cyclin D1 antibody or anti-HA antibody for cyclin D1 detection.

[2] = tested on: cyclin D1; test: Cyclin D1 protein levels by western blotting in transfected HEK293 cells with or without MG132; type: cell-based, human
Experimental: Ubc9 (a), SUMO1 (b), SUMO2 (c), SUMO3 (d) together with SENP1 constructs was co-transfected with cyclin D1 into HEK293 cells in the absence or presence of proteasome inhibitor MG132 (10 μM, 6 h of incubation). Cyclin D1 protein levels were detected through western blotting. (e) siRNA specific for Ubc9 was transiently transfected in human colon cancer cell HCT116 cells. Endogenous cyclin D1 protein levels were detected through western blotting. (f) In vivo SUMOylation and ubiquitination assay. HA-cyclin D1 was co-transfected with Ubc9 and SENP1 expression plasmids into HEK293 cells in the presence of MG132 (10 μM, 6 h of incubation). […]
(a) Cell lysates were extracted from different tissues of wt or Itch-KO mice. Endogenous cyclin D1 protein levels were detected using anti-cyclin D1 antibody by western blotting. […] Endogenous cyclin D1 protein levels were detected using anti-cyclin D1 antibody by western blotting. […] Cyclin D1 protein levels were detected using anti-HA antibody by western blotting. […] 24 h after transfection, the cell lysates were collected, the ubiquitylated cyclin D1 was detected as described in FIG. 1f. […] Cyclin D1 protein levels were detected using anti-HA antibody by western blotting. […]
Western blotting and immunoprecipitation (IP) were performed as previously described (54). The interaction between endogenous Cyclin D1 and Itch was determined in HEK293 cells. […]

[3] = tested on: tumor; conditions: reference 52; cited from earlier work
[4] = tested on: solid and liquid tumors; conditions: references 48-51; cited from earlier work
[5] = tested on: cyclin D1; test: Cyclin D1 protein levels by western blotting in HCT-116 cells; type: cell-based, human; conditions: HCT-116 cells, Itch siRNA, As2O3 2.5 μM, 48 h
Experimental: as §1
(§3) 48 h later, the cyclin D1 protein levels were detected through western blotting.
(§4) Western blotting and immunoprecipitation (IP) were performed as previously described (54). The interaction between endogenous Cyclin D1 and Itch was determined in HEK293 cells. Proteasome inhibitor MG132 (10 μM) (Sigma, St. Louis, Mo.) was added to the cell culture 6 hours before cells were harvested for immunoprecipitation assay. […]

[6] = molecular target: T2, cyclin D1 (Homo sapiens, UniProt P24385, K149R/T286A); test: as above; type: cell-based; conditions: HCT-116 cells stably expressing K149R/T286A mutant cyclin D1, treated 16 h
T2 construct: endogenous in cells; host or cells: HCT-116
T2 sequence (P24385 whole entry K149R/T286A): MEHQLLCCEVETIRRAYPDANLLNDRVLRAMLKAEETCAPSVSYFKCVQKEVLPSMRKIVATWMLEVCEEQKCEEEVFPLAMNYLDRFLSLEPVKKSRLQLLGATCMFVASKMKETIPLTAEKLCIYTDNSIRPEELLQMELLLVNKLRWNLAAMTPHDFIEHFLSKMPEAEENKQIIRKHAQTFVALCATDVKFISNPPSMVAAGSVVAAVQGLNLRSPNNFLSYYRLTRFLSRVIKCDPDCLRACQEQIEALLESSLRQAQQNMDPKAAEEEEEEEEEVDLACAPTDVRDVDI
Experimental: as §1, §3, §4

[7] = molecular target: T3, cyclin D1 (Homo sapiens, UniProt P24385, K149R); test: as above; type: cell-based; conditions: HCT-116 cells stably expressing K149R mutant cyclin D1, treated 16 h
T3 construct: endogenous in cells; host or cells: HCT-116
T3 sequence (P24385 whole entry K149R): as the sequence (P24385 whole entry K149R/T286A) above, with A286T counted along it
Experimental: as §1, §3, §4

[8] = tested on: HCT-116 cells; test: Cell cycle analysis by flow cytometry; type: cell-based, human; conditions: HCT-116 cells transfected with K149R mutant cyclin D1 compared with WT, As2O3 2.5 μM, 16 h
Experimental: as §1, with “WT or mutant cyclin D1 (K149R, T286A) construct was stably transfected into HCT-116 cells. Then the cells were treated with As2O3 (2.5 μM) for 16 h.” left out, “Yellow arrows are pointing at apoptotic cells. (f) Flow cytometry. WT or mutant cyclin D1 (K149R) construct was stably transfected into HCT-116 cells. Then the cells were treated with As2O3 for 16 h (2.5 μM).” left out, “(As, arsenic trioxide)” left out
FACS analysis was performed as described in the research by Santra et al (55). […] FACS samples were analyzed with a FACSCANTO Flow Cytometry System (BD Biosciences). And the data were analyzed using FlowJo 7.6 software according to the manufacturer's instruction.

[9] = molecular target: T4, cyclin D1 (Homo sapiens, UniProt P24385, T286A); test: In vivo SUMOylation and ubiquitylation assay (co-immunoprecipitation, western blotting); type: cell-based; conditions: HCT-116 cells stably expressing T286A mutant cyclin D1, treated 1 and 16 hours
T4 construct: endogenous in cells; host or cells: HCT-116
T4 sequence (P24385 whole entry T286A): as the sequence (P24385 whole entry K149R/T286A) above, with R149K counted along it
Experimental: as §1, §2

[10] = tested on: HCT-116 cells; test: TUNEL staining of apoptotic cells; type: cell-based, human; conditions: 16 h
Experimental: as §1
Cell apoptosis was detected using fluorescent in situ terminal deoxynucleotidyl transferase-mediated uridine 5′-triphosphate-biotin nick end labeling (TUNEL staining). Sections were first permeabilized in 0.1% Triton X-100 in phosphate-buffered saline (PBS) for 8 mins. TUNEL reaction mixture was obtained by adding terminal deoxynucleotidyl transferase to nucleotide mixture, as instructed by the manufacturer's manual (DEADEND Fluorometric TUNEL System, Promega). Sections were counterstained nuclei with 4′-6-Diamidino-2-phenylindole (DAPI).

T1 sequence (P24385 whole entry): as the sequence (P24385 whole entry K149R/T286A) above, with R149K, A286T counted along it

Compound	effect on As2O3-mediated cyclin D1 SUMOylation and polyubiquitination ([1]; HCT-116 cells, As2O3 2.5 μM 16 h, MG132 10 μM 6 h)	effect on Itch-induced cyclin D1 degradation ([2]; HEK293 cells co-transfected with Itch and cyclin D1, MG132 10 μM 6 h)	effect on degradation of cyclin D1 caused by Ubc9 ([2]; HEK293 cells co-transfected with Ubc9 and cyclin D1, MG132 10 μM 6 h)	tumor size in nude mice [3]	cell apoptosis in solid and liquid tumors [4]	degradation of cyclin D1 under silencing of Itch expression [5]	degradation of cyclin D1 [6]	degradation of cyclin D1 [7]	G1 arrest [8]	SUMOylation, polyubiquitination and degradation of cyclin D1 [9]	SUMOylation, polyubiquitination and degradation of cyclin D1 ([1]; HCT-116 cells stably expressing WT cyclin D1, treated 1 and 16 hours)	SUMOylated- and polyubiquitinated-cyclin D1 ([1]; HCT-116 cells, As2O3 2.5 μM, 1 h after treatment)	modified (SUMOylated/polyubiquitinated) cyclin D1 ([1]; HCT-116 cells, As2O3 2.5 μM, after 16 h treatment)	cell apoptosis (TUNEL) ([10]; HCT-116 cells stably transfected with K149R mutant cyclin D1, As2O3 2.5 μM)	cell apoptosis (TUNEL) ([10]; HCT-116 cells stably transfected with K149R mutant cyclin D1, As2O3 2.5 μM, listed as arsenic trioxide)	cell apoptosis (TUNEL) ([10]; HCT-116 cells stably transfected with T286A cyclin D1, As2O3 2.5 μM)	cell apoptosis (TUNEL) ([10]; HCT-116 cells stably transfected with WT cyclin D1, As2O3 2.5 μM)
CC(C)C[C@@H](C=O)NC(=O)[C@H](CC(C)C)NC(=O)[C@H](CC(C)C)NC(=O)OCc1ccccc1 [MG132] (Cbz-Leu-Leu-Leu-aldehyde)	reversed	reversed the effect of Itch on cyclin D1 degradation	reversed the degradation of cyclin D1	–	–	–	–	–	–	–	–	–	–	–	–	–	–
arsenic trioxide [As2O3]	–	–	–	tumor shrink	induces cell apoptosis	did not abrogated degradation of cyclin D1	no effect	no effect	failed to induce efficient G1 arrest	induced SUMOylation, polyubiquitination and degradation of cyclin D1	induced SUMOylation, polyubiquitination and degradation of cyclin D1	accumulated	disappeared	much lower	significantly decreased	induced accelerated cell apoptosis	induced accelerated cell apoptosis
